Legend:
estrogen receptor = estrogen receptor (Homo sapiens (Human), UniProt P03372); assay: 2×VIT ERE infection luciferase assay; type: cell-based; settings: for Infection Luciferase Activity, 1 uM + 17β estradiol: 1 uM compound + 1 nM 17β-estradiol (estrogen antagonism); for Infection Luciferase Activity, 1 uM: 1 uM compound alone, percentage of activity as compared to 17β-estradiol
Protocol: Chinese Hamster Ovary cells (CHO) which had been stably transfected with the human estrogen receptor were maintained in DMEM+10% fetal bovine serum (FBS). 48 h prior to treatment the growth medium was replaced with DMEM lacking phenol red+10% dextran coated charcoal stripped FBS (treatment medium). Cells were plated at a density of 5000 cells/well in 96-well plates containing 200 μL of medium/well.
Reporter DNA (Promega plasmid pGL2 containing two tandem copies of the vitellogenin ERE in front of the minimal thymidine kinase promoter driving the luciferase gene) was combined with the B-galactosidase expression plasmid pCH110 (Pharmacia) and carrier DNA (pTZ18U) in the following ratio:
20 uL of this mixture was added to each well of cells and remained on the cells for 16 h. […] Each treatment condition was performed on 8 wells (n=8) which were incubated for 24 h prior to the luciferase assay.
After removing the PBS, 25 uL of Promega lysis buffer was added to each well and allowed to stand at room temperature for 15 min, followed by 15 min at −80° C. and 15 min at 37° C. 20 uL of lysate was transferred to an opaque 96 well plate for luciferase activity evaluation and the remaining lysate (5 uL) was used for the B-galactosidase activity evaluation (normalize transfection). The luciferan substrate (Promega) was added in 100 uL aliquots to each well automatically by the luminometer and the light produced (relative light units) was read 10 seconds after addition.
To the remaining 5 uL of lysate 45 uL of PBS was added. Then 50 uL of Promega B-galactosidase 2× assay buffer was added, mixed well and incubated at 37° C. for 1 hour. A plate containing a standard curve (0.1 to 1.5 milliunits in triplicate) was set up for each experimental run. The plates were analyzed on a Molecular Devices spectrophotometric plate reader at 410 nm. The optical densities for the unknown were converted to milliunits of activity by mathematical extrapolation from the standard curve.
The luciferase data was generated as relative light units (RLUs) accumulated during a 10 second measurement and automatically transferred to a JMP (SAS Inc) file where background RLUs were subtracted. The B-galactosidase values were automatically imported into the file and these values were divided into the RLUs to normalize the data. The mean and standard deviations were determined from a n=8 for each treatment. […] These techniques are described by Tzukerman, M. T., Esty, A., Santiso-Mere, D., Danielian, P., Parker, M. G., Stein, R. B., Pike, J. W. and McDonnel, D. P. (1994). Human estrogen receptor transactivational capacity was determined by both cellular and promoter context and mediated by two functionally distinct intramolecular regions (see Molecular Endocrinology, 8:21-30).

[1] = tested on: Immature Sprague-Dawley rats; assay: Rat uterotrophic/antiuterotrophic bioassay; type: in vivo; settings: immature female rats, daily ip; for Uterine wt mg 100 uG cmpd + 1uG 17β-estradiol: 100 uG compound + 1 uG 17β-estradiol; for Uterine wt mg 100 uG cmpd: 100 uG compound, wet weight
Protocol: The estrogenic and antiestrogenic properties of the compounds were determined in an immature rat uterotrophic assay (4 day) that (as described previously by L. J. Black and R. L. Goode, Life Sciences, 26, 1453 (1980)). Immature Sprague-Dawley rats (female, 18 days old) were tested in groups of six. […] On day 4 the animals were sacrificed by CO2 asphyxiation and their uteri were removed and stripped of excess lipid, any fluid removed and the wet weight determined. A small section of one horn was submitted for histology and the remainder used to isolate total RNA in order to evaluate complement component 3 gene expression.

Chain of estrogen receptor (P03372 whole entry): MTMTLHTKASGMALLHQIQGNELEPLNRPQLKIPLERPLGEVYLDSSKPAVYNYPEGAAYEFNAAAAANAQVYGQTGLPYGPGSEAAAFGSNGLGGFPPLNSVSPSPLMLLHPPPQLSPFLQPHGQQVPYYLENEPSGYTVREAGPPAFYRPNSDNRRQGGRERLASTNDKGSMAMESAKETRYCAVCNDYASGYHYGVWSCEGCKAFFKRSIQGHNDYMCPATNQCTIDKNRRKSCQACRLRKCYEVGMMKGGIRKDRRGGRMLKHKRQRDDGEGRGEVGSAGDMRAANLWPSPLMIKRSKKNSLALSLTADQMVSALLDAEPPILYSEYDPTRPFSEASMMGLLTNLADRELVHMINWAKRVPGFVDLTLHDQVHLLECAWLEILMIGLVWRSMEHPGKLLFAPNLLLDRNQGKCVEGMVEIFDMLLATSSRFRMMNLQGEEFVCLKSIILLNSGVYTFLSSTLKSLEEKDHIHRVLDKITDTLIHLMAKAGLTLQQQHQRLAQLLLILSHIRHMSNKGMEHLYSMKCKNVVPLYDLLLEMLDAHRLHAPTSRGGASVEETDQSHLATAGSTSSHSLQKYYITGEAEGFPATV

Row | Infection Luciferase Activity, 1 uM + 17β estradiol (estrogen receptor) | Infection Luciferase Activity, 1 uM (estrogen receptor) | Structure (SMILES) | Uterine wt mg 100 uG cmpd + 1uG 17β-estradiol [1] | Uterine wt mg 100 uG cmpd [1]
1 |  |  | Cc1c(-c2ccc(O)cc2)n(Cc2ccc(OCCN3CCCCC3)cc2)c2ccc(F)cc12 [No. 94, 4-{5-Fluoro-3-methyl-1-[4-(2-piperidin-1-yl-ethoxy)-benzyl]-1H-indol-2-yl}-phenol] | 93.7 mg | 28.1 mg
2 | −4% | −4% | Cc1c(-c2ccccc2)n(Cc2ccc(OCCN3CCCCCC3)cc2)c2ccc(O)cc12 [No. 95, 1-[4-(2-Azepan-1-yl-ethoxy)-benzyl]-3-methyl-2-phenyl-1H-indol-5-ol] |  | 
3 |  |  | Cc1c(-c2ccc(O)cc2)n(Cc2ccc(OCCN3CCCCC3)cc2)c2ccc(O)cc12 [No. 97, 2-(4-Hydroxy-phenyl)-3-methyl-1-[4-(2-piperidin-1-yl-ethoxy)-benzyl]-1H-indol-5-ol] | 24.3 mg | 27.4 mg
4 |  |  | Cc1c(-c2ccc(O)cc2)n(Cc2ccc(OCCN(C)C)cc2)c2ccc(O)cc12 [No. 100, 2-(4-Hydroxy-phenyl)-3-methyl-1-[4-(2-dimethyl-1-yl-ethoxy)-benzyl]-1H-indol-5-ol] | 68.7 mg | 59.9 mg
5 |  |  | CCN(CC)CCOc1ccc(Cn2c(-c3ccc(O)cc3)c(C)c3cc(O)ccc32)cc1 [No. 101, 2-(4-Hydroxy-phenyl)-3-methyl-1-[4-(2-diethyl-1-yl-ethoxy)-benzyl]-1H-indol-5-ol] | 71.0 mg | 65.1 mg
6 | 10% | 9% | CCCN(CCC)CCOc1ccc(Cn2c(-c3ccc(O)cc3)c(C)c3cc(O)ccc32)cc1 [No. 102, 1-[4-(2-Dipropylamino-ethoxy)-benzyl]-2-(4-hydroxy-phenyl)-3-methyl-1H-indol-5-ol] |  | 
7 | 10% | 13% | CCCCN(CCCC)CCOc1ccc(Cn2c(-c3ccc(O)cc3)c(C)c3cc(O)ccc32)cc1 [No. 103, 1-[4-(2-Dibutylamino-ethoxy)-benzyl]-2-(4-hydroxy-phenyl)-3-methyl-1H-indol-5-ol] |  | 
8 | 5% | 5% | CCCCN(C)CCOc1ccc(Cn2c(-c3ccc(O)cc3)c(C)c3cc(O)ccc32)cc1 [No. 105, 1-{4-[2-(Butyl-methyl-amino)-ethoxy]-benzyl}-2-(4-hydroxy-phenyl)-3-methyl-1H-indol-5-ol] |  | 
9 | 10% | 8% | Cc1c(-c2ccc(O)cc2)n(Cc2ccc(OCCN3CCC(C)CC3)cc2)c2ccc(O)cc12 [No. 110, 2-(4-Hydroxy-phenyl)-3-methyl-1-{4-[2-(4-methyl-piperidin-1-yl)-ethoxy]-benzyl}-1H-indol-5-ol] |  | 
10 | 23% | 25% | Cc1c(-c2ccc(O)cc2)n(Cc2ccc(OCCN3CCCC(C)(C)C3)cc2)c2ccc(O)cc12 [No. 111, 1-{4-[2-(3,3-Dimethyl-piperidin-1-yl)-ethoxy]-benzyl}2-(4-hydroxy-phenyl)-3-methyl-1H-indol-5-ol] |  | 
11 | 16% | 14% | Cc1c(-c2ccc(O)cc2)n(Cc2ccc(OCCN3CCC(O)CC3)cc2)c2ccc(O)cc12 [No. 113, 2-(4-Hydroxy-phenyl)-1-{4-[2-(4-hydroxy-piperidin-1-yl)-ethoxy]-benzyl}-3-methyl-1H-indol-5-ol] |  | 
12 | −1% | 1% | Cc1c(-c2ccc(O)cc2)n(Cc2ccc(OCCN3C[C@@H]4CC[C@H]3C4)cc2)c2ccc(O)cc12 [No. 114, (1S,4R)-1-{4-[2-(2-Aza-bicyclo[2.2.1]hept-2-yl)-ethoxy]-benzyl}-2-(4-hydroxy-phenyl)-3-methyl-1H-indol-5-ol] |  | 
13 | 10% | 11% | Cc1c(-c2ccc(O)cc2)n(Cc2ccc(OCCN3CC4(C)CC3CC(C)(C)C4)cc2)c2ccc(O)cc12 (stereo not shown) [No. 115, 2-(4-Hydroxy-phenyl)-3-methyl-1-{4-[2-(1,3,3-trimethyl-6-aza-bicyclo[3.2.1]oct-6-yl)-ethoxy]-benzyl}-1H-indol-5-ol] |  | 
14 | 9% | 7% | Oc1ccc(-c2c(Cl)c3cc(O)ccc3n2Cc2ccc(OCCN3CCCC3)cc2)cc1 [No. 133, 3-Chloro-2-(4-hydroxy-phenyl)-1-[4-(2-pyrrolidin-1-yl-ethoxy)-benzyl]-1H-indol-5-ol] |  | 
15 |  |  | N#Cc1c(-c2ccc(O)cc2)n(Cc2ccc(OCCN3CCCCCC3)cc2)c2ccc(O)cc12 [No. 139, 1-[4-(2-Azepan-1-yl-ethoxy)-benzyl]-5-hydroxy-2-(4-hydroxy-phenyl)-1H-indole-3-carbonitrile] | 45.0 mg | 30.4 mg
16 | 23% | 25% | Cc1c(-c2ccc(O)cc2)n(Cc2ccc(OCCCN3CCCCC3)cc2)c2ccc(O)cc12 [No. 166, 2-(4-Hydroxy-phenyl)-3-methyl-1-{4-[3-(piperidin-1-yl)-propoxy]-benzyl}-1H-indol-5-ol] |  | 
17 |  |  | COc1cc(Cn2c(-c3ccc(O)cc3)c(C)c3cc(O)ccc32)ccc1OCCN1CCCCCC1 [No. 168, 2-(4-Hydroxy-phenyl)-1-[3-methoxy-4-(2-azepan-1-yl-ethoxy)-benzyl]-3-methyl-1H-indol-5-ol] | 81.7 mg | 43.2 mg
18 |  |  | CC/C(=C(\c1ccccc1)c1ccc(OCCN(C)C)cc1)c1ccccc1 [tamoxifen] |  | 71.4 mg

Row | Structure (SMILES) | Infection Luciferase Activity, 1 uM + 17β estradiol (estrogen receptor) | Infection Luciferase Activity, 1 uM (estrogen receptor) | Uterine wt mg 100 uG cmpd + 1uG 17β-estradiol [1] | Uterine wt mg 100 uG cmpd [1]
19 | Cc1c(-c2ccccc2)n(Cc2ccc(OCCN3CCCCC3)cc2)c2ccc(O)cc12 [No. 87, 3-Methyl-2-phenyl-1-[4-(2-piperidine-1-yl-ethoxy)-benzyl]-1H-indol-5-ol] | 0% | 0% |  | 
20 | Cc1c(-c2ccc(O)cc2)n(Cc2ccc(OCCN3CCCC3)cc2)c2ccc(O)cc12 [No. 96, 2-(4-Hydroxy-phenyl)-3-methyl-1-[4-(2-pyrollidin-1-yl-ethoxy)-benzyl]-1H-indol-5-ol] | 8% | 12% |  | 
21 | Cc1c(-c2ccc(O)cc2)n(Cc2ccc(OCCN(C(C)C)C(C)C)cc2)c2ccc(O)cc12 [No. 104, 1-[4-(2-Diisopropylamino-ethoxy)-benzyl]-2-(4-hydroxy-phenyl)-3-methyl-1H-indol-5-ol] | 7% | 7% |  | 
22 | Cc1c(-c2ccc(O)cc2)n(Cc2ccc(OCCN3CCCCC3C)cc2)c2ccc(O)cc12 (stereo not shown) [No. 108, 2-(4-Hydroxy-phenyl)-3-methyl-1-{4-[2-(2-methyl-piperidin-1-yl)-ethoxy]-benzyl}-1H-indol-5-ol] | 10% | 11% |  | 
23 | Cc1c(-c2ccc(O)cc2)n(Cc2ccc(OCCN3CCCC(C)C3)cc2)c2ccc(O)cc12 (stereo not shown) [No. 109, 2-(4-Hydroxy-phenyl)-3-methyl-1-{4-[2-(3-methyl-piperidin-1-yl)-ethoxy]-benzyl}-1H-indol-5-ol] | 5% | 6% |  | 
24 | Cc1c(-c2cccc(O)c2)n(Cc2ccc(OCCN3CCCCC3)cc2)c2ccc(O)cc12 [No. 127, 2-(3-Hydroxy-phenyl)-3-methyl-1-[4-(2-piperidin-1-yl-ethoxy)-benzyl]-1H-indol-5-ol] | −4% | −3% |  | 
25 | CCc1c(-c2ccc(O)cc2)n(Cc2ccc(OCCN3CCCCC3)cc2)c2ccc(O)cc12 [No. 137, 2-(4-Hydroxy-phenyl)-3-ethyl-1-[4-(2-piperidin-1-yl-ethoxy)-benzyl]-1H-indol-5-ol] | 8% | 6% |  | 
